Test results: patent publication US12226412B2, “Heteroaryl-ketone fused azadecalin glucocorticoid receptor modulators” (Corcept Therapeutics, Inc., priority 2012, dated 2025)
Where two headings read alike, the source gives them in different places.

Key:
[1] = biological target: T1, human recombinant GR (Homo sapiens, UniProt P04150); assay: Human glucocorticoid receptor (GR) fluorescence polarisation (FP) binding assay
T1 construct: purchased PanVera P2812
T1 sequence (P04150 1-777): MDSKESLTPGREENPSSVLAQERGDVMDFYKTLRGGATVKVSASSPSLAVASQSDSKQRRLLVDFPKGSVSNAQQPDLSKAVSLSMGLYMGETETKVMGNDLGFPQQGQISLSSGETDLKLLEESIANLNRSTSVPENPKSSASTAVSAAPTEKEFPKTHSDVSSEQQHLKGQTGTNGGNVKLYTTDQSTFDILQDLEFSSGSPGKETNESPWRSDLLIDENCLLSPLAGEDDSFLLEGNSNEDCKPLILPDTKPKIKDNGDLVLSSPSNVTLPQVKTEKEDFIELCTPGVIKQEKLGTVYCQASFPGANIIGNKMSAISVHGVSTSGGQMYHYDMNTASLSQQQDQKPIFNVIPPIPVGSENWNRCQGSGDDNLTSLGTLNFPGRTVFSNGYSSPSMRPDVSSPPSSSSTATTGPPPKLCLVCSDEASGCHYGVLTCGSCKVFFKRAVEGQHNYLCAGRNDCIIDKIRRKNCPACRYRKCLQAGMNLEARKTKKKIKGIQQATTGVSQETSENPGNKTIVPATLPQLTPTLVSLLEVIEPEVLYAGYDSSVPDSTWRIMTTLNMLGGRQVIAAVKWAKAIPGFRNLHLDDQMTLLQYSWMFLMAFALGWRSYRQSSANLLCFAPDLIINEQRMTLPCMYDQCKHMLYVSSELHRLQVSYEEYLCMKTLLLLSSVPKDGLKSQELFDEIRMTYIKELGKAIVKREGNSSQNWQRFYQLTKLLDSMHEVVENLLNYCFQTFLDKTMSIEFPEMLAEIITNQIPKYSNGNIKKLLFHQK
Procedure, shortened: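 Competition fluorescence polarisation: 0.5 nM GS Red labelled glucocorticoid and 1 nM recombinant human GR with 8-point half-log compound series, 1% DMSO, 4 h room temperature, potassium phosphate pH 7.4 buffer with molybdate, EDTA, DTT. Affinity derived from the drop in polarisation, normalised to blank wells.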

[2] = system: induction of TAT by dexamethasone in HepG2 cells; assay: HepG2 tyrosine aminotransferase (TAT) assay; type: cell-based, human
[3] = human recombinant GR, fluorescence polarisation binding assay, read-out: GR binding
[4] = HepG2 cells, challenge of 100 nM dexamethasone, Ki from IC50 by Cheng and Prusoff equation

| SMILES | Ki [1, 3] [nM] | Ki [2, 4] [nM] | Ki [1] [nM] | Ki [2] [nM] |
| --- | --- | --- | --- | --- |
| O=C(c1ccccn1)[C@]12Cc3cnn(-c4ccc(F)cc4)c3C=C1CCN(S(=O)(=O)c1cccc(C(F)(F)F)n1)C2 [Example 11AD, (R)-(1-(4-fluorophenyl)-6-((6-(trifluoromethyl)pyridin-2-yl)sulfonyl)-4,4a,5,6,7,8-hexahydro-1H-pyrazolo[3,4-g]isoquinolin-4a-yl)(pyridin-2-yl)methanone] | < 0.5 | < 20 |  |  |
| CCn1nncc1S(=O)(=O)N1CCC2=Cc3c(cnn3-c3ccc(F)cc3)C[C@]2(C(=O)c2cc(C(F)(F)F)ccn2)C1 [Example 11CL, (R)-(6-((1-ethyl-1H-1,2,3-triazol-5-yl)sulfonyl)-1-(4-fluorophenyl)-4,4a,5,6,7,8-hexahydro-1H-pyrazolo[3,4-g]isoquinolin-4a-yl)(4-(trifluoromethyl)pyridin-2-yl)methanone] | > 1 | 20 to 100 |  |  |
| Cc1nc(S(=O)(=O)N2CCC3=Cc4c(cnn4-c4ccc(F)cc4)C[C@]3(C(=O)c3cc(C(F)(F)F)ccn3)C2)cn1C [Example 11BV, (R)-(6-((1,2-dimethyl-1H-imidazol-4-yl)sulfonyl)-1-(4-fluorophenyl)-4,4a,5,6,7,8-hexahydro-1H-pyrazolo[3,4-g]isoquinolin-4a-yl)(4-(trifluoromethyl)pyridin-2-yl)methanone] | < 0.5 | < 20 |  |  |
| O=C(c1cscn1)[C@]12Cc3cnn(-c4ccc(F)cc4)c3C=C1CCN(S(=O)(=O)c1ccc(F)c(F)c1)C2 [Example 11BU, (R)-(6-((3,4-difluorophenyl)sulfonyl)-1-(4-fluorophenyl)-4,4a,5,6,7,8-hexahydro-1H-pyrazolo[3,4-g]isoquinolin-4a-yl)(thiazol-4-yl)methanone] | > 1 | 20 to 100 |  |  |
| O=C(c1ccnc(N2CCCC2)c1)[C@]12Cc3cnn(-c4ccc(F)cc4)c3C=C1CCN(S(=O)(=O)c1ccc(F)c(F)c1)C2 [Example 11BH, (R)-(6-((3,4-difluorophenyl)sulfonyl)-1-(4-fluorophenyl)-4,4a,5,6,7,8-hexahydro-1H-pyrazolo[3,4-g]isoquinolin-4a-yl)(2-(pyrrolidin-1-yl)pyridin-4-yl)methanone] | > 1 | ≥ 100 |  |  |
| COc1ccc(S(=O)(=O)N2CCC3=Cc4c(cnn4-c4ccc(F)cc4)C[C@]3(C(=O)c3ccccn3)C2)cc1C [Example 11B, (R)-(1-(4-fluorophenyl)-6-((4-methoxy-3-methylphenyl)sulfonyl)-4,4a,5,6,7,8-hexahydro-1H-pyrazolo[3,4-g]isoquinolin-4a-yl)(pyridin-2-yl)methanone] | < 0.5 | < 20 |  |  |
| Cc1ccnc(C(=O)[C@]23Cc4cnn(-c5ccc(F)cc5)c4C=C2CCN(S(=O)(=O)c2cnc4c(c2)OCCN4C)C3)c1 [Example 11AM, (R)-(1-(4-fluorophenyl)-6-((4-methyl-3,4-dihydro-2H-pyrido[3,2-b][1,4]oxazin-7-yl)sulfonyl)-4,4a,5,6,7,8-hexahydro-1H-pyrazolo[3,4-g]isoquinolin-4a-yl)(4-methylpyridin-2-yl)methanone] | < 0.5 | < 20 |  |  |
| O=C(c1ccccn1)[C@]12Cc3cnn(-c4ccc(F)cc4)c3C=C1CCN(S(=O)(=O)c1ccc(F)c(C(F)(F)F)c1)C2 [Example 2P, (R)-(6-((4-fluoro-3-(trifluoromethyl)phenyl)sulfonyl)-1-(4-fluorophenyl)-4,4a,5,6,7,8-hexahydro-1H-pyrazolo[3,4-g]isoquinolin-4a-yl)(pyridin-2-yl)methanone] |  |  | 0.5 to 1 | < 20 |
| O=C(c1nccs1)[C@]12Cc3cnn(-c4ccc(F)cc4)c3C=C1CCN(S(=O)(=O)c1ccc(N3CCCC3)nc1)C2 [Example 4, (R)-(1-(4-fluorophenyl)-6-((6-(pyrrolidin-1-yl)pyridin-3-yl)sulfonyl)-4,4a,5,6,7,8-hexahydro-1H-pyrazolo[3,4-g]isoquinolin-4a-yl)(thiazol-2-yl)methanone] | < 0.5 | ≥ 100 |  |  |
| CCn1cc(S(=O)(=O)N2CCC3=Cc4c(cnn4-c4ccc(F)cc4)C[C@]3(C(=O)c3ccccn3)C2)nn1 [Example 11CJ, (R)-(6-((1-ethyl-1H-1,2,3-triazol-4-yl)sulfonyl)-1-(4-fluorophenyl)-4,4a,5,6,7,8-hexahydro-1H-pyrazolo[3,4-g]isoquinolin-4a-yl)(pyridin-2-yl)methanone] | < 0.5 | 20 to 100 |  |  |
| Cc1cccc(S(=O)(=O)N2CCC3=Cc4c(cnn4-c4ccc(F)cc4)C[C@]3(C(=O)c3cc(C)ccn3)C2)c1 [Example 12G, (R)-(1-(4-fluorophenyl)-6-(m-tolylsulfonyl)-4,4a,5,6,7,8-hexahydro-1H-pyrazolo[3,4-g]isoquinolin-4a-yl)(4-methylpyridin-2-yl)methanone] | < 0.5 | < 20 |  |  |
| Cc1ccc(S(=O)(=O)N2CCC3=Cc4c(cnn4-c4ccc(F)cc4)C[C@]3(C(=O)c3ccccn3)C2)cc1F [Example 2J, (R)-(6-((3-fluoro-4-methylphenyl)sulfonyl)-1-(4-fluorophenyl)-4,4a,5,6,7,8-hexahydro-1H-pyrazolo[3,4-g]isoquinolin-4a-yl)(pyridin-2-yl)methanone] | < 0.5 | < 20 |  |  |
| Cc1c(S(=O)(=O)N2CCC3=Cc4c(cnn4-c4ccc(F)cc4)C[C@]3(C(=O)c3cc(C(F)(F)F)ccn3)C2)cnn1C [Example 11BN, (R)-(6-((1,5-dimethyl-1H-pyrazol-4-yl)sulfonyl)-1-(4-fluorophenyl)-4,4a,5,6,7,8-hexahydro-1H-pyrazolo[3,4-g]isoquinolin-4a-yl)(4-(trifluoromethyl)pyridin-2-yl)methanone] | < 0.5 | < 20 |  |  |
| O=C(c1cscn1)[C@]12Cc3cnn(-c4ccc(F)cc4)c3C=C1CCN(S(=O)(=O)c1ccc(Cl)c(Cl)c1)C2 [Example 19, (R)-(6-((3,4-dichlorophenyl)sulfonyl)-1-(4-fluorophenyl)-4,4a,5,6,7,8-hexahydro-1H-pyrazolo[3,4-g]isoquinolin-4a-yl)(thiazol-4-yl)methanone] | < 0.5 | < 20 |  |  |
| CCCn1cc(S(=O)(=O)N2CCC3=Cc4c(cnn4-c4ccc(F)cc4)C[C@]3(C(=O)c3cscn3)C2)nn1 [Example 11CS, (R)-(1-(4-fluorophenyl)-6-((1-propyl-1H-1,2,3-triazol-4-yl)sulfonyl)-4,4a,5,6,7,8-hexahydro-1H-pyrazolo[3,4-g]isoquinolin-4a-yl)(thiazol-4-yl)methanone] | < 0.5 | < 20 |  |  |
| Cc1ccnc(C(=O)[C@]23Cc4cnn(-c5ccc(F)cc5)c4C=C2CCN(S(=O)(=O)c2ccc4c(c2)CCO4)C3)c1 [Example 11AN, (R)-(6-((2,3-dihydrobenzofuran-5-yl)sulfonyl)-1-(4-fluorophenyl)-4,4a,5,6,7,8-hexahydro-1H-pyrazolo[3,4-g]isoquinolin-4a-yl)(4-methylpyridin-2-yl)methanone] | < 0.5 | < 20 |  |  |
| Cc1ccccc1S(=O)(=O)N1CCC2=Cc3c(cnn3-c3ccc(F)cc3)C[C@]2(C(=O)c2ccccn2)C1 [Example 2C, (R)-(1-(4-fluorophenyl)-6-(o-tolylsulfonyl)-4,4a,5,6,7,8-hexahydro-1H-pyrazolo [3,4-g]isoquinolin-4a-yl)(pyridin-2-yl)methanone] |  | < 20 | < 0.5 |  |
| O=C(c1ccccn1)[C@]12Cc3cnn(-c4cccnc4)c3C=C1CCN(S(=O)(=O)c1cccc(C(F)(F)F)c1)C2 [Example 15A, (R)-pyridin-2-yl(1-(pyridin-3-yl)-6-((3-(trifluoromethyl)phenyl)sulfonyl)-4,4a,5,6,7,8-hexahydro-1H-pyrazolo[3,4-g]isoquinolin-4a-yl)methanone] | < 0.5 | 20 to 100 |  |  |
| Cn1ncc(S(=O)(=O)N2CCC3=Cc4c(cnn4-c4ccc(F)cc4)C[C@]3(C(=O)c3ccccn3)C2)n1 (single isomer, unassigned) [Example 11DB] | < 0.5 | < 20 |  |  |
| O=C(c1ccccn1)[C@]12Cc3cnn(-c4ccc(F)cc4)c3C=C1CCN(S(=O)(=O)c1cc(F)cc(F)c1)C2 [Example 11J, (R)-(6-((3,5-difluorophenyl)sulfonyl)-1-(4-fluorophenyl)-4,4a,5,6,7,8-hexahydro-1H-pyrazolo[3,4-g]isoquinolin-4a-yl)(pyridin-2-yl)methanone] | < 0.5 | < 20 |  |  |
| O=C(c1ccccn1)[C@]12Cc3cnn(-c4ccc(F)cc4)c3C=C1CCN(S(=O)(=O)c1cccc(C(F)(F)F)c1)C2 [Example 5C, (R)-(1-(4-fluorophenyl)-6-((3-(trifluoromethyl)phenyl)sulfonyl)-4,4a,5,6,7,8-hexahydro-1H-pyrazolo[3,4-g]isoquinolin-4a-yl)(pyridin-2-yl)methanone] |  |  | < 0.5 | < 20 |
